Values after ≈ are worked out from the molar mass of the structure shown.
How the values were obtained:
[1] = molecular target: T1, WD repeat-containing protein 5 (Homo sapiens, UniProt P61964); assay: Inhibition of 5- FAM labeled tracer binding to N-terminal His6-SUMO-tagged WDR5 (24 to 334 residues) (unknown origin) expressed in Escherichia coli Rosetta 2 (DE3) cells incubated for 3 hrs by fluorescence polarization based competitive binding assay
[2] = Acute toxicity in CD-1 mouse assessed as lethality at 3 mg/kg, iv measured 0.083 to 24 hrs post-treatment by LC-MS/MS analysis; type: organism-based; details: in vivo, time 0.083-24 hrs
[3] = Volume of distribution at steady state in CD-1 mouse at 3 mg/kg, iv measured 0.083 to 24 hrs post-treatment by LC-MS/MS analysis; type: ADME, organism-based; details: in vivo, time 0.083-24 hrs; for Vdss: mouse, iv, 3 mg/kg
[4] = Effective permeability of compound in PBS at pH 7.4 at 100 uM incubated for 5 hrs by PAMPA assay; type: ADME; details: pH 7.4, 5 h
MOLM-13 = assay: Anti-proliferative activity against human MOLM-13 cells assessed as inhibition of cell proliferation incubated for 5 days by Cell Titre Glo luminescent assay; type: functional; details: time 5 day
K562 = assay: Anti-proliferative activity against human K562 cells assessed as inhibition of cell proliferation incubated for 5 days by Cell Titre Glo luminescent assay; type: functional; details: time 5 day
[5] = Kinetic aqueous solubility of compound at pH 7.4; type: physicochemical; details: buffer
[6] = AUC (0 to infinity) in CD-1 mouse at 3 mg/kg, iv measured 0.083 to 24 hrs post-treatment by LC-MS/MS analysis; type: ADME, organism-based; design: time upper 24 hrs, time lower 0.083 hrs, dose 3 mg/kg, route iv; details: in vivo; for AUC: mouse
[7] = molecular target: T1, WD repeat-containing protein 5; assay: Inhibition of N-terminal 6xHis-SUMO-tagged human WDR5 (22 to 334 residues) expressed in Escherichia coli BL21-Gold (DE3) cells assessed as inhibition constant incubated for 1 hr by TR-FRET assay
[8] = Clearance in CD-1 mouse at 3 mg/kg, iv measured 0.083 to 24 hrs post-treatment by LC-MS/MS analysis; details: in vivo, BLD = below limit of detection
[9] = Acute toxicity in CD-1 mouse assessed as reduced locomotive activity at 3 mg/kg, iv measured 0.083 to 24 hrs post-treatment by LC-MS/MS analysis; type: organism-based; details: in vivo, time 0.083-24 hrs
[10] = Acute toxicity in CD-1 mouse assessed as lowered body temperature at 3 mg/kg, iv measured 0.083 to 24 hrs post-treatment by LC-MS/MS analysis; type: organism-based; details: in vivo, time 0.083-24 hrs
MV4-11 [11] = assay: Anti-proliferative activity against human MV4-11 cells assessed as inhibition of cell proliferation incubated for 5 days by Cell Titre Glo luminescent assay; type: functional; details: time 5 day
MV4-11 [12] = assay: Anti-proliferative activity against human MV4-11 cells harboring MLL fusion protein assessed as inhibition of cell viability treated for 72 hrs by CCK-8 assay; type: functional, cell-based; details: MV4-11, 72 h
[13] = molecular target: Histone-lysine N-methyltransferase 2A/WDR5 (Homo sapiens, UniProt P61964); assay: Inhibition of MLL1-WDR5 (unknown origin) interaction using 10mer-Thr-FAM as substrate by fluorescence polarization based competitive binding assay; type: protein assay
[14] = molecular target: T1, WD repeat-containing protein 5; assay: Competitive binding affinity to N-terminal 6xHis-SUMO-tagged human WDR5 (22 to 334 residues) expressed in Escherichia coli BL21-Gold (DE3) cells assessed as inhibition constant using 10-mer-Thr-FAM peptide as substrate incubated for 1 hr by Lantha Screen based TR-FRET assay
[15] = Metabolic stability of compound in rat liver microsome assessed as half life at 1 uM measured upto 45 mins by LCMS analysis; type: ADME, microsomes
[16] = Metabolic stability of compound in rat liver microsome assessed as intrinsic clearance at 1 uM measured upto 45 mins by LCMS analysis; type: ADME, microsomes
[17] = AUC (0 to infinity) in CD-1 mouse at 10 mg/kg, po measured 0.083 to 24 hrs post-treatment by LC-MS/MS analysis; type: ADME, organism-based; design: dose 10 mg/kg, time upper 24 hrs, time lower 0.083 hrs, route po; details: in vivo
[18] = Oral bioavailability in CD-1 mouse at 10 mg/kg measured 0.083 to 24 hrs post-treatment by LC-MS/MS analysis; type: ADME, organism-based; details: in vivo, time 0.083-24 hrs
[19] = Cmax in CD-1 mouse at 10 mg/kg, po measured 0.083 to 24 hrs post-treatment by LC-MS/MS analysis; type: ADME, organism-based; design: time lower 0.083 hrs, dose 10 mg/kg, time upper 24 hrs, route po; details: in vivo
[20] = Kinetic solubility of compound in PBS at pH 7.4 at 100 uM incubated for 1 hr by UV-visible spectroscopy analysis; type: physicochemical
[21] = Half life in CD-1 mouse at 10 mg/kg, po measured 0.083 to 24 hrs post-treatment by LC-MS/MS analysis; type: ADME, organism-based; details: mouse, in vivo, po, 10 mg/kg, time 0.083-24 hrs
[22] = Clearance in CD-1 mouse at 3 mg/kg, iv measured 0.083 to 24 hrs post-treatment by LC-MS/MS analysis; type: ADME, organism-based; details: in vivo, time 0.083-24 hrs

SMILES: CC[C@@H]1NC(=O)[C@H](CCCNC(=N)NC)NC(=O)[C@](C)(NC(=O)C(C)C)CCNC(=O)[C@@H](c2ccccc2)NC1=O
- Ki [1]: < 1 nM

SMILES: COc1cc(CN2CCc3c(cc(Cn4ccn(C)c4=N)cc3-c3ccc(F)cc3C)C2=O)cc(OC)c1
- Activity [2]: Toxic
- Vdss [3]: 16 L/kg
- permeability [4]: < 0.6 10^-6 cm/s
- GI50 (MOLM-13; Homo sapiens, MOLM-13, 120 h): 78 nM
- GI50 (K562; Homo sapiens, K562, 120 h): 8000 nM
- Kinetic_solubility [5]: 29 µM
- AUC [6]: 642 ng·h/mL
- Ki [7]: < 0.02 nM
- CL [8]: Bld
- Activity [9]: Toxic
- Activity [10]: Toxic
- GI50 (MV4-11 [11]; Homo sapiens, MV4-11, 120 h): 38 nM

SMILES: CN1CCN(c2cc(F)c(-c3ccc(NC(=O)N(C)C)cc3)cc2Nc2ncnc(Cl)c2N)CC1
- IC50 (MV4-11 [12]): 12600 nM
- IC50 [13]: 29 nM

SMILES: CCn1cc(-c2cc(Cn3ccnc3C)cc3c2CCN([C@@H](C)c2cc(OC)ccn2)C3=O)c(C(F)(F)F)n1 (stereo in doubt; 34)
- Vdss [3]: 3.8 L/kg
- GI50 (MOLM-13; Homo sapiens, MOLM-13, 120 h): 26 nM
- Ki [14]: < 0.02 nM
- t1/2 ([15]; microsomes, 0.75 h, 1 µM): 12 min
- GI50 (K562; Homo sapiens, K562, 120 h): 2200 nM
- CLH ([16]; microsomes, 0.75 h, 1 µM): 60 µL/min/mg
- AUC ([17]; mouse): 397 ng·h/mL
- AUC [6]: 429 ng·h/mL
- F ([18]; mouse, po, 10 mg/kg): 28%
- Cmax ([19]; mouse): 279 ng/mL
- Kinetic_solubility ([20]; buffer, pH 7.4, 1 h, 100 µM): 80 µM
- t1/2 [21]: 72 min
- GI50 (MV4-11 [11]; Homo sapiens, MV4-11, 120 h): 11 nM

SMILES: CCn1cc(-c2cc(Cn3ccnc3C)cc3c2CCN([C@@H](C)c2cc(OC)ccn2)C3=O)c(C(F)(F)F)n1 (stereo in doubt; 38)
- Vd ([3]; CD-1, mouse, read-out: Vdss): 2.3 L/kg
- GI50 (MOLM-13; 120 h): 19 nM
- half-life at 1 µM ([15]; liver microsomes): 22 min
- GI50 (K562; 120 h): 1900 nM
- microsomal CLint at 1 µM ([16]; liver microsomes, read-out: CLH): 31 µL/min/mg
- AUC(0-inf) ([17]; CD-1, mouse): 1710 ng·h/mL
- clearance [22]: 76 mL/min/kg
- AUC(0-inf) ([6]; CD-1, mouse): 707 ng·h/mL
- bioavailability ([18]; CD-1, mouse): 73%
- Cmax ([19]; CD-1, mouse, read-out: Cmax): 2010 ng/mL
- solubility kinetic at 1 h, 100 µM ([20]; PBS, pH 7.4, read-out: Kinetic_solubility): 86 µM (≈ 46.3 µg/mL)
- GI50 (MV4-11 [11]; 120 h): 9.7 nM
